Laboratory results published in publication PMC9032233, “2-{5-[(Z,2Z)-2-Chloro-3-(4-nitrophenyl)-2-propenylidene]-4-oxo-2-thioxothiazolidin-3-yl}-3-methylbutanoic Acid as a Potential Anti-Breast Cancer Molecule” (International Journal of Molecular Sciences, 2022).

What was measured:
[1] = tested on: MCF-7 cells; test: Mitochondrial membrane potential analysis (JC-1), MCF-7; type: cell-based, human; conditions: 24 h
Experimental: (§1) The JC-1 MitoScreen kit (BD Biosciences, San Diego, CA, USA) was used for the mitochondrial membrane potential (ΔΨm) analysis. The assay was performed using a flow cytometer (BD FACSCanto II, Becton Dickinson Biosciences Systems, San Jose, CA, USA). The Les-3331 and reference drug were used in 1 µM and 5 µM concentrations. After 24 h incubation with tested compounds, the assay was performed as described in the literature. Analysis of the obtained results was performed using FACSDiva software (version 6.1.3, BD Biosciences Systems, San Jose, CA, USA). The equipment was calibrated with BD Cytometer Setup and Tracking Beads (BD Biosciences, San Diego, CA, USA).

[2] = tested on: MCF-7 human breast cancer cells; test: MTT cell viability assay, MCF-7; type: cell-based; conditions: MCF7, MCF-7, MTT, 24 h incubation
Experimental: (§2) Cell culture MCF-7, MDA-MB-231 human breast cancer cells, and fibroblasts skin cells were purchased from the ATCC—American Type Culture Collection. All cell lines were maintained in DMEM (Corning, Kennebunk, ME, USA). The medium was supplemented with 10% fetal bovine serum—FBS (Eurx, Gdansk, Poland) and 1% antimicrobial substances: penicillin–streptomycin (Corning, Kennebunk, ME, USA). The incubator asserted appropriate growth conditions required for these cell lines: 5% of CO2, at 37 °C, with the humidity between 90–95%. Cells were seeded in 100 mm round dishes. An amount of 0.05% trypsin containing 0.02% EDTA (Corning, Kennebunk, ME, USA) and phosphate-buffered saline (PBS) without calcium and magnesium (Corning, Kennebunk, ME, USA) was used to detach cells from a plate once 80–90% cell confluence was achieved. In the next step, cells were reseeded in six-well plates (density—5 × 10^5 of cells per well) in 1 mL of DMEM after a 24 h incubation used in the presented tests.
(§3) To examine the effect of Les-3331 on cell viability, the MTT assay was performed. […] The absorbance was measured using Spectrophotometer UV-VIS Helios Gamma (Unicam/ThermoFisher Scientific Inc., Waltham, MA, USA) at a wavelength of 570 nm. The obtained absorbance in untreated control cells was taken as 100%, while the survival of the cells incubated with tested compounds presented as a percentage of the control value.

[3] = tested on: MDA-MB-231 cells; test: Mitochondrial membrane potential analysis (JC-1), MDA-MB-231; type: cell-based, human; conditions: 24 h
Experimental: as §1

[4] = tested on: topoisomerase II; test: Topoisomerase II concentration in MDA-MB-231 cell lysates (ELISA); type: cell-based, human; conditions: 24 h, control 2.700 ng/mL
Experimental: (§4) High sensitivity assay kits (EIAab Science Co., Ltd., Wuhan, China; Abcam plc., Cambridge, United Kingdom; Cloud-Clone Corp., Katy, TX, USA) were used to determine the concentrations of selected proteins in cell lysates after 24 h incubation with novel compound and reference drug in 1 µM and 5 µM concentrations. In brief, after trypsinization, cells were washed thrice with cold PBS and centrifuged at 1000× g for 5 min at 4 °C. Then, cells (1.5 × 10^6) were suspended in lysis buffer for whole-cell lysates. After the second centrifugation, cellular supernatants were frozen immediately at −70 °C. Untreated cancer cells were taken as a control.
(§5) The microtiter plates provided in the kits were pre-coated with an antibody specific to the analyzed antigen. The tests were carried out according to the manufacturer’s protocols.

[5] = tested on: MDA-MB-231 human breast cancer cells; test: MTT cell viability assay, MDA-MB-231; type: cell-based; conditions: MDA-MB-231, MTT, 24 h incubation
Experimental: as §2, §3

[6] = tested on: caspase-8; test: Caspase-8 concentration in MDA-MB-231 cell lysates (ELISA); type: cell-based, human; conditions: 24 h, control 0.828 ng/mL
Experimental: as §4, §5

[7] = tested on: caspase-9; test: Caspase-9 concentration in MDA-MB-231 cell lysates (ELISA); type: cell-based, human; conditions: 24 h, control 65.073 ng/mL
Experimental: as §4, §5

[8] = tested on: topoisomerase IIα; test: Flow cytometric analysis of anti-topoisomerase IIα antibody, MCF-7; type: cell-based, human; conditions: 24 h
Experimental: To confirm the ELISA results, flow cytometric analysis of Top II activity using an anti-topoisomerase IIα antibody conjugated with phycoerythrin (PE) was performed. The Les-3331 and etoposide were used at 1 µM and 5 µM concentrations. Cancer cells were incubated for 24 h with tested compounds and the assay was carried out in accordance with the manufacturer’s protocol. Briefly, cells were centrifuged and resuspended in 4% formaldehyde. Then, cells were incubated at RT for 15 min and subsequently washed with excess PBS and centrifuged. Thereafter, ice-cold 90% methanol was added to the cells and they were incubated for 1 h in an ice bath. Next, cells were washed with excess PBS and centrifuged again. In the meantime, the primary antibody was diluted (1:100) in PBS. Then, cells were resuspended in the prepared primary antibody (100 µL) and incubated at RT, protected from light, for 1 h. Finally, cells were washed and resuspended in PBS (300 µL). The prepared samples were measured immediately. Analysis of the obtained results was performed using a flow cytometer (BD FACSCanto II, Becton Dickinson Biosciences Systems, San Jose, CA, USA) and FACSDiva software (v6.1.3, BD Biosciences Systems, San Jose, CA, USA). The equipment was calibrated with BD Cytometer Setup and Tracking Beads (BD Biosciences, San Diego, CA, USA).

[9] = tested on: LC3B; test: LC3B concentration in MCF-7 cell lysates (ELISA); type: cell-based, human; conditions: 24 h, control 1.194 ng/mL
Experimental: High sensitivity assay kits (EIAab Science Co., Ltd., Wuhan, China; Abcam plc., Cambridge, United Kingdom; Cloud-Clone Corp., Katy, TX, USA) were used to determine the concentrations of selected proteins in cell lysates […] In brief, after trypsinization, cells were washed thrice with cold PBS and centrifuged at 1000× g for 5 min at 4 °C. Then, cells (1.5 × 10^6) were suspended in lysis buffer for whole-cell lysates. After the second centrifugation, cellular supernatants were frozen immediately at −70 °C. Untreated cancer cells were taken as a control.
as §5

| SMILES | % of cells with decreased ΔΨm ([1]; MCF-7, 1 µM) | % of cells with decreased ΔΨm ([1]; MCF-7, 5 µM) | IC50 [2] | % of cells with decreased ΔΨm ([3]; MDA-MB-231, 1 µM) | % of cells with decreased ΔΨm ([3]; MDA-MB-231, 5 µM) | Top II concentration ([4]; MDA-MB-231, 1 µM) | Top II concentration ([4]; MDA-MB-231, 5 µM) | IC50 [5] | Casp-8 concentration ([6]; MDA-MB-231, 1 µM) | Casp-8 concentration ([6]; MDA-MB-231, 5 µM) | Casp-9 concentration ([7]; MDA-MB-231, 1 µM) | Casp-9 concentration ([7]; MDA-MB-231, 5 µM) | % of cells without anti-topoisomerase IIα antibody ([8]; MCF-7, 1 µM) | % of cells without anti-topoisomerase IIα antibody ([8]; MCF-7, 5 µM) | LC3B concentration ([9]; MCF-7, 1 µM) | LC3B concentration ([9]; MCF-7, 5 µM) |
| --- | --- | --- | --- | --- | --- | --- | --- | --- | --- | --- | --- | --- | --- | --- | --- | --- |
| COc1cc([C@@H]2c3cc4c(cc3[C@@H](O[C@@H]3O[C@@H]5CO[C@@H](C)O[C@H]5[C@H](O)[C@H]3O)[C@H]3COC(=O)[C@H]23)OCO4)cc(OC)c1O [Etoposide, reference compound] | 10.2% | 18.5% | > 50 µM | 11.4% | 15.6% | 2.175 ng/mL | 2.003 ng/mL | > 50 µM | 0.836 ng/mL | 0.857 ng/mL | 86.953 ng/mL | 93.620 ng/mL | 8.6% | 11.8% | 1.157 ng/mL | 0.779 ng/mL |
| CC(C)C(C(=O)O)N1C(=O)/C(=C/C(Cl)=C/c2ccc([N+](=O)[O-])cc2)SC1=S (stereo not shown) [Les-3331, 2-{5-[(Z,2Z)-2-chloro-3-(4-nitrophenyl)-2-propenylidene]-4-oxo-2-thioxothiazolidin-3-yl}-3-methylbutanoic acid] | 9.8% | 25.5% | 5.02 µM | 21.8% | 36.3% | 2.508 ng/mL | 1.436 ng/mL | 15.2 µM | 1.012 ng/mL | 1.067 ng/mL | 84.300 ng/mL | 92.523 ng/mL | 34.1% | 49.2% | – | 1.002 ng/mL |
